Measurements from US20070059688A1, “Gastrointestinal chemosensory receptors” (priority 2001, published 2007).
“Also recorded” adds a separate entry of the source.

Assays:
[1] = tested on: STC-1 cells; assay: Ca2+ imaging of individual STC-1 cells (fura 2-AM) after bitter tastants; format: cell-based, mouse; conditions: for [Ca2+]i response in STC-1 cells (in words): single cells, FIG. 9 concentrations: PTC 3 mM, 6-PTU 1 mM, caffeine 10 mM, nicotine 10 mM, cycloheximide 50 μM
Method: The [Ca^2+]i of individual cells was measured before and after exposure to single concentrations of bitter tastants. Top panel. […] The values in parenthesis are the number of cells analyzed. Lower panels. Individual traces of [Ca^2+], from two cells exposed to denatonium benzoate or cycloheximide.
Due to heterogeneity of the STC-1 cell population, we monitored responses in the intracellular Ca^2+ concentration ([Ca^2+]i) using Ca^2+ imaging of individual cells and tested the effect of several compounds widely used in bitter taste signaling.
The concentrations of denatonium used in these experiments are similar to those used for eliciting second messenger changes and ion channel activity in taste tissues.
Since a low level of mT2R5 expression was also detected in STC-1 cells, we determined if cycloheximide stimulates a [Ca^2+]i response in these cells.

[2] = tested on: IEC-18 cells; assay: [Ca2+]i changes in IEC-18 cells; format: cell-based, rat; conditions: FIG. 10B: 5 mM denatonium benzoate, vasopressin as positive control
Method: (§1) (A) STC-1 cells, grown on cover slips, were washed with a buffer solution (buffer A) consisting of Hanks' balanced salt solution supplemented with 0.03% NaHCO3, 1.3 mM CaCl2, 0.5 mM MgCl2, 0.4 mM MgSO4, and 0.1% BSA. After washing, cells were incubated with […] methyl ester (fura-2/AME) from a stock of 1 mM in DMSO for 30 min at room temperature. Cells were then washed again with buffer A and left at room temperature for an additional 30 min. Each cover slip was placed in a glass cuvette with 2 ml of buffer A, and fluorescence was measured continuously in a Hitachi F-2000 fluorospectrophotometer with excitation wavelength of 340 and 380 nm and an emission wavelength of 510 nm. The bars represent the increase in [Ca^2+]i in response to various concentrations of denatonium benzoate (DB), as indicated. (B) [Ca^2+]i changes in IEC-18 cells, a normal rat intestinal epithelial cell line, after sequential addition of 5 mM denatonium benzoate (DB) followed by 50 nM vasopressin (VP), added as a positive control. (C) [Ca^2+]i changes in Swiss 3T3 cells after sequential addition of 5 mM denatonium benzoate (DB) followed by 10 nM bombesin (Bom), added as a positive control. The changes in [Ca^2+]i in IEC-18 and Swiss 3T3 cells were measured as described above for STC-1 cells.

[3] = tested on: STC-1 cells; assay: [Ca2+]i in STC-1 cells on cover slips, fura-2 fluorospectrophotometry; format: cell-based, mouse; conditions: various concentrations of denatonium benzoate, FIG. 10A
Method: as §1

[4] = target: T1, chimeric mT2R5 receptors containing the NH2-terminal 39 amino acids of rhodopsin (Mus musculus, UniProt Q9JKT4); conditions: HEK-293 cells; Chandrashekar et al, Cell 100:703-711 (2000); cited from earlier work
T1 construct: host or cells: HEK-293 (heterologous expression)
T1 sequence (Q9JKT4 with tags, fused parts or gaps): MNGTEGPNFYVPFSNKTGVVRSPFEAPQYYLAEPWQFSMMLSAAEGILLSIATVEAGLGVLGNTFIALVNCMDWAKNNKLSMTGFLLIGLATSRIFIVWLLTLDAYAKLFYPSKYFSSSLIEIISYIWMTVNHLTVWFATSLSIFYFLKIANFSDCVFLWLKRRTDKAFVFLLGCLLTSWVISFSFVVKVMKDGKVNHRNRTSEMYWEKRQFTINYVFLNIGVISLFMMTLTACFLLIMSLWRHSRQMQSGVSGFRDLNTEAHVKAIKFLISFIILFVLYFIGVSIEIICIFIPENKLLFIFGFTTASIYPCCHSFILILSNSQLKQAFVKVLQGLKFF

O=C(O)/C=C/c1ccc(O)c(O)c1 [caffeic acid]
[Ca2+]i response in STC-1 cells (in words) [1]: did not induce any detectable change

CN1CCCC1c1cccnc1 (centres unmarked) [nicotine]
[Ca2+]i response in STC-1 cells (in words) [1]: robust [Ca^2+]i responses

CN1[C@@H]2CC[C@H]1C[C@@H](OC(=O)C(CO)c1ccccc1)C2 (some centres unmarked) [atropine]
[Ca2+]i response in STC-1 cells (in words) [1]: did not induce any detectable change

CCCc1cc(=O)[nH]c(=S)[nH]1 [6-n-propil-2-thiouracil]
[Ca2+]i response in STC-1 cells (in words) [1]: robust [Ca^2+]i responses; also recorded: promoted rapid [Ca^2+]i responses | [Ca2+]i response in IEC-18 cells (in words) [2]: not in other well studied cell lines such as IEC-18 or 3T3

Cn1c(=O)c2c(ncn2C)n(C)c1=O [caffeine]
[Ca2+]i response in STC-1 cells (in words) [1]: robust [Ca^2+]i responses

CC[N+](CC)(CC(=O)Nc1c(C)cccc1C)Cc1ccccc1 [denatonium benzoate]
cells with increase in [Ca2+]i ([1]; 1 mM, percentage of the STC-1 population): 33% | cells with marked increase in [Ca2+]i ([1]; 10 mM, percentage of STC-1 cells examined): 97% | [Ca2+]i response in STC-1 cells (in words) [1]: rapid and dose-dependent elevation | [Ca2+]i response in STC-1 cells (in words) ([1]; listed as denatonium): promoted rapid [Ca^2+]i responses | increase in [Ca2+]i in STC-1 cells (in words) [3]: dose-dependent increase | [Ca2+]i response in IEC-18 cells (in words) [2]: not in other well studied cell lines such as IEC-18 or 3T3

NC(=S)Nc1ccccc1 [phenylthiocarbamide]
[Ca2+]i response in STC-1 cells (in words) [1]: robust [Ca^2+]i responses; also recorded: promoted rapid [Ca^2+]i responses | [Ca2+]i response in IEC-18 cells (in words) [2]: not in other well studied cell lines such as IEC-18 or 3T3

C[C@@H]1C[C@@H]([C@H](O)CC2CC(=O)NC(=O)C2)C(=O)[C@@H](C)C1 [cycloheximide]
[Ca2+]i response in STC-1 cells (in words) [1]: induced oscillatory changes in [Ca^2+]i in a small sub-population of STC-1 cells; also recorded: promoted rapid [Ca^2+]i responses | mT2R5 response, increase in [Ca2+]i (in words) [4]: responds | [Ca2+]i response in IEC-18 cells (in words) [2]: not in other well studied cell lines such as IEC-18 or 3T3
